# Laboratory results from US20020035061A1, “COMPOSITIONS AND METHODS FOR TREATING INFECTIONS USING CATIONIC PEPTIDES ALONE OR IN COMBINATION WITH ANTIBIOTICS” (priority 1996, published 2002).
# Like-named read-outs stand apart in the source and are kept apart here.
# How the values were obtained:
# Format in all cases: cell-based
# [1] = system: K. pneumoniae; details: for MIC: K. pneumoniae strain KP001
# [2] = system: E. faecalis
# [3] = system: A. calcoaceticus
# [4] = system: bacterial isolates; assay: microbe, parasite or virus in culture; details: for Peptide MIC Alone: Piperacillin section; for FIC: peptide + Piperacillin
# [5] = system: H. influenzae; assay: Agarose dilution assay (MIC)
# [6] = system: S. pneumoniae; assay: Agarose dilution assay (MIC)
# [7] = system: S. pyogenes; assay: Agarose dilution assay (MIC)
# [8] = system: S. maltophilia
# [9] = system: E. cloacae; details: E. cloacae strain ECL006
# [10] = system: S. aureus
# [11] = system: inherently resistant microorganisms; assay: microbe, parasite or virus in culture; details: S. aureus MRSA; for Peptide MIC Alone: Piperacillin section; for FIC: peptide + Piperacillin
# [12] = system: S. marcescens
# [13] = system: microorganisms with acquired resistance; assay: microbe, parasite or virus in culture; details: for Peptide MIC Alone: Piperacillin section; for FIC: peptide + Piperacillin
# [14] = system: S. epidermidis
# [15] = system: P. aeruginosa
# [16] = system: E. coli
# [17] = system: E. faecium; details: E. faecium strain EFM001
sequence,measurement,setting,value
ILRWVWWVWRRK [MBI 11F4CN],"MIC, Peptide","[1]; K. pneumoniae KP001, unmodified parent peptide",4 µg/mL
same,MIC,[1],8 µg/mL
same,"MIC, Peptide","[2]; E. faecalis EFS008, unmodified parent peptide",2 µg/mL
same,MIC,[2]; E. faecalis strain EFS004,8 µg/mL
same,"MIC, Peptide","[3]; A. calcoaceticus AC002, unmodified parent peptide",4 µg/mL
same,MIC,[3]; A. calcoaceticus strain AC003,16 µg/mL
same,Peptide MIC + Piperacillin,[4]; E. cloacae 10,8 µg/mL
same,Piperacillin MIC + Peptide,[4]; E. cloacae 10,4 µg/mL
same,Peptide MIC Alone,[4]; E. cloacae 10,16 µg/mL
same,Peptide MIC + Piperacillin,[4]; H. influenzae SB1,0.125 µg/mL
same,Piperacillin MIC + Peptide,[4]; H. influenzae SB1,0.25 µg/mL
same,Peptide MIC Alone,[4]; H. influenzae SB1,>128 µg/mL
same,Peptide MIC + Piperacillin,[4]; P. aeruginosa 7,8 µg/mL
same,Piperacillin MIC + Peptide,[4]; P. aeruginosa 7,64 µg/mL
same,Peptide MIC Alone,[4]; P. aeruginosa 7,64 µg/mL
same,Piperacillin MIC + Peptide,[4]; P. aeruginosa 23,64 µg/mL
same,Peptide MIC Alone,[4]; P. aeruginosa 23,64 µg/mL
same,Peptide MIC + Piperacillin,[4]; S. aureus 19 MRSA,2 µg/mL
same,Piperacillin MIC + Peptide,[4]; S. aureus 19 MRSA,4 µg/mL
same,Peptide MIC Alone,[4]; S. aureus 19 MRSA,4 µg/mL
same,Peptide MIC + Piperacillin,[4]; S. maltophilia 2,0.5 µg/mL
same,Piperacillin MIC + Peptide,[4]; S. maltophilia 2,32 µg/mL
same,Peptide MIC Alone,[4]; S. maltophilia 2,16 µg/mL
same,Peptide MIC + Piperacillin,[4]; S. marcescens 1,0.5 µg/mL
same,Piperacillin MIC + Peptide,[4]; S. marcescens 1,64 µg/mL
same,Peptide MIC Alone,[4]; S. marcescens 1,>128 µg/mL
same,FIC,[4]; E. cloacae 10,0.52
same,FIC,[4]; H. influenzae SB1,0.50
same,FIC,[4]; P. aeruginosa 7,0.38
same,FIC,[4]; P. aeruginosa 23,0.31
same,FIC,[4]; S. aureus 19 MRSA,0.53
same,FIC,[4]; S. maltophilia 2,0.53
same,FIC,[4]; S. marcescens 1,0.25
same,MIC,[5]; H. influenzae strain HIN003,>128 µg/mL
same,MIC,[6]; S. pneumoniae strain SBSPN3,>128 µg/mL
same,MIC,[7]; S. pyogenes strain SPY005,32 µg/mL
same,"MIC, Peptide","[8]; S. maltophilia SMA002, unmodified parent peptide",16 µg/mL
same,MIC,[8]; S. maltophilia strain SMA006,16 µg/mL
same,MIC,[9],16 µg/mL
same,"MIC, Peptide","[10]; S. aureus SA014, unmodified parent peptide",2 µg/mL
same,MIC,[10]; S. aureus strain SA007,1 µg/mL
same,Peptide MIC + Piperacillin,[11],2 µg/mL
same,Peptide MIC Alone,[11],4 µg/mL
same,FIC,[11],0.53
same,MIC,[12]; S. marcescens strain SBSM1,>128 µg/mL
same,Peptide MIC + Piperacillin,[13]; E. cloacae 10,8 µg/mL
same,Piperacillin MIC + Peptide,[13]; E. cloacae 10,4 µg/mL
same,Peptide MIC Alone,[13]; E. cloacae 10,16 µg/mL
same,Peptide MIC + Piperacillin,[13]; H. influenzae 1,64 µg/mL
same,Piperacillin MIC + Peptide,[13]; H. influenzae 1,16 µg/mL
same,Peptide MIC Alone,[13]; H. influenzae 1,>128 µg/mL
same,Peptide MIC + Piperacillin,[13]; P. aeruginosa 7,8 µg/mL
same,Piperacillin MIC + Peptide,[13]; P. aeruginosa 7,64 µg/mL
same,Peptide MIC Alone,[13]; P. aeruginosa 7,64 µg/mL
same,Peptide MIC + Piperacillin,[13]; P. aeruginosa 23,4 µg/mL
same,Piperacillin MIC + Peptide,[13]; P. aeruginosa 23,64 µg/mL
same,Peptide MIC Alone,[13]; P. aeruginosa 23,64 µg/mL
same,Peptide MIC + Piperacillin,[13]; S. maltophilia 2,4 µg/mL
same,Piperacillin MIC + Peptide,[13]; S. maltophilia 2,16 µg/mL
same,Peptide MIC Alone,[13]; S. maltophilia 2,16 µg/mL
same,Peptide MIC + Piperacillin,[13]; S. marcescens 1,4 µg/mL
same,Piperacillin MIC + Peptide,[13]; S. marcescens 1,16 µg/mL
same,Peptide MIC Alone,[13]; S. marcescens 1,>128 µg/mL
same,FIC,[13]; E. cloacae 10,0.52
same,FIC,[13]; H. influenzae 1,0.75
same,FIC,[13]; P. aeruginosa 7,0.38
same,FIC,[13]; P. aeruginosa 23,0.31
same,FIC,[13]; S. maltophilia 2,0.50
same,FIC,[13]; S. marcescens 1,0.08
same,MIC,[14]; S. epidermidis strain SE010,2 µg/mL
same,"MIC, Peptide","[15]; P. aeruginosa PA004, unmodified parent peptide",32 µg/mL
same,MIC,[15]; P. aeruginosa strain PA020,32 µg/mL
same,"MIC, Peptide","[16]; E. coli ECO005, unmodified parent peptide",8 µg/mL
same,MIC,[16]; E. coli strain ECO001,8 µg/mL
ILKKWPWWPWRR [MBI 11G7CN],MIC,[17],8 µg/mL
same,MIC,[1],16 µg/mL
same,MIC,[2]; E. faecalis strain EFS002,32 µg/mL
same,MIC,[3]; A. calcoaceticus strain AC001,128 µg/mL
same,Peptide MIC + Piperacillin,[4]; A. calcoaceticus 3,16 µg/mL
same,Piperacillin MIC + Peptide,[4]; A. calcoaceticus 3,32 µg/mL
same,Peptide MIC Alone,[4]; A. calcoaceticus 3,64 µg/mL
same,Peptide MIC + Piperacillin,[4]; H. influenzae SB1,4 µg/mL
same,Piperacillin MIC + Peptide,[4]; H. influenzae SB1,0.25 µg/mL
same,Peptide MIC Alone,[4]; H. influenzae SB1,>128 µg/mL
same,Peptide MIC + Piperacillin,[4]; P. aeruginosa 7,64 µg/mL
same,Piperacillin MIC + Peptide,[4]; P. aeruginosa 7,64 µg/mL
same,Peptide MIC Alone,[4]; P. aeruginosa 7,>128 µg/mL
same,Peptide MIC + Piperacillin,[4]; P. aeruginosa 23,1 µg/mL
same,Piperacillin MIC + Peptide,[4]; P. aeruginosa 23,64 µg/mL
same,Peptide MIC Alone,[4]; P. aeruginosa 23,>128 µg/mL
same,Peptide MIC + Piperacillin,[4]; S. aureus 18 MRSA,8 µg/mL
same,Piperacillin MIC + Peptide,[4]; S. aureus 18 MRSA,64 µg/mL
same,Peptide MIC Alone,[4]; S. aureus 18 MRSA,32 µg/mL
same,Peptide MIC + Piperacillin,[4]; S. aureus 19 MRSA,0.5 µg/mL
same,Piperacillin MIC + Peptide,[4]; S. aureus 19 MRSA,64 µg/mL
same,Peptide MIC Alone,[4]; S. aureus 19 MRSA,8 µg/mL
same,Peptide MIC + Piperacillin,[4]; S. marcescens 1,1 µg/mL
same,Piperacillin MIC + Peptide,[4]; S. marcescens 1,16 µg/mL
same,Peptide MIC Alone,[4]; S. marcescens 1,>128 µg/mL
same,FIC,[4]; A. calcoaceticus 3,0.50
same,FIC,[4]; H. influenzae SB1,0.52
same,FIC,[4]; P. aeruginosa 7,0.50
same,FIC,[4]; P. aeruginosa 23,0.50
same,FIC,[4]; S. aureus 18 MRSA,0.50
same,FIC,[4]; S. aureus 19 MRSA,0.56
same,FIC,[4]; S. marcescens 1,0.25
same,MIC,[5]; H. influenzae strain HIN002,>128 µg/mL
same,MIC,[5]; H. influenzae strain SBHIN2,>128 µg/mL
same,MIC,[6]; S. pneumoniae strain SBSPN2,>128 µg/mL
same,MIC,[6]; S. pneumoniae strain SPN044,>128 µg/mL
same,MIC,[7]; S. pyogenes strain SPY006,16 µg/mL
same,MIC,[8]; S. maltophilia strain SMA001,32 µg/mL
same,MIC,[9],64 µg/mL
same,MIC,[10]; S. aureus strain SA012,2 µg/mL
same,Peptide MIC + Piperacillin,[11],2 µg/mL
same,Peptide MIC Alone,[11],8 µg/mL
same,FIC,[11],0.25
same,MIC,[12]; S. marcescens strain SBSM1,>128 µg/mL
same,MIC,[12]; S. marcescens strain SMS003,>128 µg/mL
same,Peptide MIC + Piperacillin,[13]; A. calcoaceticus 3,32 µg/mL
same,Piperacillin MIC + Peptide,[13]; A. calcoaceticus 3,16 µg/mL
same,Peptide MIC Alone,[13]; A. calcoaceticus 3,64 µg/mL
same,Peptide MIC + Piperacillin,[13]; H. influenzae 1,64 µg/mL
same,Piperacillin MIC + Peptide,[13]; H. influenzae 1,16 µg/mL
same,Peptide MIC Alone,[13]; H. influenzae 1,>128 µg/mL
same,Peptide MIC + Piperacillin,[13]; P. aeruginosa 7,64 µg/mL
same,Piperacillin MIC + Peptide,[13]; P. aeruginosa 7,64 µg/mL
same,Peptide MIC Alone,[13]; P. aeruginosa 7,>128 µg/mL
same,Peptide MIC + Piperacillin,[13]; P. aeruginosa 23,1 µg/mL
same,Piperacillin MIC + Peptide,[13]; P. aeruginosa 23,64 µg/mL
same,Peptide MIC Alone,[13]; P. aeruginosa 23,>128 µg/mL
same,Peptide MIC + Piperacillin,[13]; S. maltophilia 2,16 µg/mL
same,Piperacillin MIC + Peptide,[13]; S. maltophilia 2,16 µg/mL
same,Peptide MIC Alone,[13]; S. maltophilia 2,64 µg/mL
same,Peptide MIC + Piperacillin,[13]; S. marcescens 1,1 µg/mL
same,Piperacillin MIC + Peptide,[13]; S. marcescens 1,16 µg/mL
same,Peptide MIC Alone,[13]; S. marcescens 1,>128 µg/mL
same,FIC,[13]; A. calcoaceticus 3,0.63
same,FIC,[13]; H. influenzae 1,0.75
same,FIC,[13]; P. aeruginosa 7,0.50
same,FIC,[13]; P. aeruginosa 23,0.50
same,FIC,[13]; S. maltophilia 2,0.75
same,FIC,[13]; S. marcescens 1,0.25
same,MIC,[14]; S. epidermidis strain SE002,2 µg/mL
same,MIC,[15]; P. aeruginosa strain PA006,>128 µg/mL
same,MIC,[16]; E. coli strain ECO005,8 µg/mL
